Key:
Format in all cases: cell-based
[1] = system: BXPC3 human pancreatic cancer cells; experiment: CellTiter Glo (CTG) cell viability assay, in vitro cell killing, BXPC3; settings: 24 h treatment, 0.5% serum and 0.05% DMSO, relative to untreated control; for viability at 50 µM: BXPC-3, 50 μM, read-out: % avg live cells @ 50 μM (% Viable Cells Remaining); for viability at 100 µM: BXPC-3, 100 μM, read-out: % avg live cells @ 100 μM (% Viable Cells Remaining)
Source text: (§1) The objective of this investigation was to assess the in vitro cell killing activities of analogs of lipoic acid in BXPC3 human pancreatic, H460 non small lung carcinoma, and SF539 human gliosarcoma cancer cells.
(§2) Three human tumor cell types, BXPC3 human pancreatic cancer, H460 non small lung carcinoma, and SF539 human gliosarcoma, were used in this investigation. The BXPC3 and H460 cells were originally obtained from American Type Cell Culture (ATCC). The SF539 cells were originally obtained from the NCI AIDS and Cancer Specimen Bank (ACSB). All tumor cells were maintained at 37° C. in a humidified 5% CO2 atmosphere in T75 tissue culture flasks containing 20 mL of Roswell Park Memorial Institute (RPMI) 1640 containing 2 mM L-glutamine, 10% FBS and 1% penicillin and streptomycin (100 IU/mL penicillin and 100 μg/mL streptomycin). The tumor cells were split at a ratio of 1:5 every 4-5 days by trypsinization and resuspended in fresh medium in a new flask. Cells were harvested for experiments at 70-90% confluency.
(§3) Stock solutions of each analog were prepared at a concentration of 200 and 100 mM in DMSO. Five μL of this solution was diluted in 10.0 mL of 0.5% serum containing RPMI media to give the desired 100 μM and 50 μM solutions in 0.05% DMSO.
(§4) The cancer cells were seeded at 4000 cells/well for H460 cells and 6000 cells/well for BXPC3 and SF 539 cells and incubated 24 hours. The killing activity of analogs was assayed at 50 μM and 100 μM concentrations. The tumor cells were treated for 24 hours with the test article, and after 24 hours of treatment the number of viable tumor cells was determined using the CTG assay.
(§5) The number of cells targeted for the study is 4×10^3 per well for H460 cells and 6×10^3 per well for BXPC3 and SF539 cells in 100 μL of medium. The actual number of cells were counted and seeded in the wells of a 96 well-plate. The cells were incubated for approximately 24 hours before addition of test article.
(§6) The media in the plate was removed by aspiration, and 100 μL of the test article at a final concentration of 50 μM or 100 μM was added to the cells. After exposure to the test articles for 24 hours, the number of viable cells in each well was determined and the percent of viable cells relative to control (in the absence of test article) were calculated. Additionally, a set of wells was treated with cell culture medium in the absence of cells to obtain a value for background luminescence. A separate set of cells was seeded at the same time in a clear 96-well plate and observed under the microscope at 24 hours, following addition of the test article to estimate the amount of cells present after treatment.
(§7) The number of viable cells was determined by using the CTG assay. Specifically, reagents were mixed and allowed to come to room temperature according to instructions from Promega, Inc. (Madison, Wis.). Cell plates were removed from the cell culture incubator and left on the bench for thirty minutes until they reached room temperature. 100 μL per well of CTG reagent was added with the 12-channel Eppendorf pipettor. The cells were lysed by shaking the plate for two minutes in a shaker. The cells were kept in room temperature for ten minutes to stabilize the luminescent signal. The luminescence was measured using the FLUOstar OPTIMA plate reader (BMG Labtech, Inc., Durham, N.C.).
(§8) Data from luminescence readings was copied onto EXCEL spreadsheets, and cell growth relative to untreated cells was calculated, using the following equation: […]

[2] = system: H460 non small lung carcinoma cells; experiment: CellTiter Glo (CTG) cell viability assay, in vitro cell killing, H460; settings: Homo sapiens, 24 h treatment, 0.5% serum and 0.05% DMSO, relative to untreated control; for viability at 50 µM: NCI-H460, 50 μM, read-out: % avg live cells @ 50 μM (% Viable Cells Remaining); for viability at 100 µM: NCI-H460, 100 μM, read-out: % avg live cells @ 100 μM (% Viable Cells Remaining)
Source text: as §1, §2, §3, §4, §5, §6, §7, §8

[3] = system: SF539 human gliosarcoma cells; experiment: CellTiter Glo (CTG) cell viability assay, in vitro cell killing, SF539; settings: 24 h treatment, 0.5% serum and 0.05% DMSO, relative to untreated control; for viability at 50 µM: SF-539, 50 μM, read-out: % avg live cells @ 50 μM (% Viable Cells Remaining); for viability at 100 µM: SF-539, 100 μM, read-out: % avg live cells @ 100 μM (% Viable Cells Remaining)
Source text: as §1, §2, §3, §4, §5, §6, §7, §8

## c1ccc(CSCCC(CCCCc2nn[nH]n2)SCc2ccccc2)cc1 (stereo not drawn) [D]
[1]
  viability at 50 µM: 0.3%
  viability at 100 µM: 3.9%
[2]
  viability at 50 µM: 4.1%
  viability at 100 µM: 2.7%
[3]
  viability at 50 µM: 2.1%
  viability at 100 µM: 0.1%

## N#CCCCCC(CCSCc1ccccc1)SCc1ccccc1 (stereo not drawn) [C]
[1]
  viability at 50 µM: 70.9%
  viability at 100 µM: 36.1%
[2]
  viability at 50 µM: 69.8%
  viability at 100 µM: 27.1%
[3]
  viability at 50 µM: 74.9%
  viability at 100 µM: 23.2%

## CCCCCCC(CCSCc1ccccc1)SCc1ccccc1 (stereo not drawn) [A]
[1]
  viability at 50 µM: 84%
  viability at 100 µM: 75%
[2]
  viability at 50 µM: 89%
  viability at 100 µM: 70%
[3]
  viability at 50 µM: 100%
  viability at 100 µM: 98%

## O=S(=O)(O)CCCCC(CCSCc1ccccc1)SCc1ccccc1 (stereo not drawn) [E]
[1]
  viability at 50 µM: 0%
  viability at 100 µM: 0%
[2]
  viability at 50 µM: 0%
  viability at 100 µM: 0.3%
[3]
  viability at 50 µM: 0%
  viability at 100 µM: 0%

## O=C(O)CCOCC(CCSCc1ccccc1)SCc1ccccc1 (stereo not drawn) [G]
[1]
  viability at 50 µM: 99.7%
  viability at 100 µM: 41.7%
[2]
  viability at 50 µM: 102%
  viability at 100 µM: 37.6%
[3]
  viability at 50 µM: 91.6%
  viability at 100 µM: 30.3%

## COCCCCCC(CCSCc1ccccc1)SCc1ccccc1 (stereo not drawn) [B]
[1]
  viability at 50 µM: 84%
  viability at 100 µM: 91%
[2]
  viability at 50 µM: 97%
  viability at 100 µM: 67%
[3]
  viability at 50 µM: 99%
  viability at 100 µM: 99%

Reference: patent publication US10526357B2, “Pharmaceutical compounds” (Rafael Pharmaceuticals, Inc., priority 2014, dated 2020)
